Columns and labels:
[1] = Test Example 2: Metabolic stability with mouse hepatic microsomes; format: in vitro ADME; settings: after 30 minutes, 37° C., NADPH; also: tested at 0.99 µM
Description: Metabolic stability in mouse hepatic microsomes was evaluated with the following method.
• (1) Mouse hepatic microsomes: 20 mg/mL • (2) Test compound: 1.1 mM DMSO solution • (3) Potassium phosphate buffer solution: 66.7 mM (pH 7.4) • (4) NADPH solution: 10 mM in potassium phosphate buffer solution • (5) Quenching solution: 0.5% formic acid-acetonitrile solution with warfarin as internal standard substance
Into a propylene tube, 971.5 μL of the potassium phosphate buffer solution and 27.5 μL of the mouse hepatic microsomes were put, and suspended. Thereto, 1 μL of a test compound was added, and 180 μL was taken from this mixture and transferred into another tube. The mixture was preincubated at 37° C. for 5 minutes, and 20 μL of the NADPH solution (for the case with an incubation time of 30 minutes) or 20 μL of the potassium phosphate buffer solution (for the case with an incubation time of 0 minutes) was then added thereto. After incubation, 200 μL of the quenching solution was added to terminate the reaction. Subsequently, centrifugation was performed at 3220×g for 20 minutes, and the concentration of the unchanged form of the test compound in 200 μL of the supernatant was measured with LC-MS/MS. On the basis of the peak area obtained for the unchanged form, the residual rate (%) of the unchanged form was calculated as that for the case with an incubation time of 0 minutes was assumed as 100%.

[2] = biological target: T1, human recombinant ALDH2 enzyme (Homo sapiens, UniProt P05091); test: Test Example 1-2: ALDH2 activation effect (acetaldehyde oxidation rate, PicoProbe kit); format: biochemical; settings: ALDH2 1 μg/mL, 60 min measurement
T1 construct: purchased Abcam ab87415
T1 sequence (P05091 18-517): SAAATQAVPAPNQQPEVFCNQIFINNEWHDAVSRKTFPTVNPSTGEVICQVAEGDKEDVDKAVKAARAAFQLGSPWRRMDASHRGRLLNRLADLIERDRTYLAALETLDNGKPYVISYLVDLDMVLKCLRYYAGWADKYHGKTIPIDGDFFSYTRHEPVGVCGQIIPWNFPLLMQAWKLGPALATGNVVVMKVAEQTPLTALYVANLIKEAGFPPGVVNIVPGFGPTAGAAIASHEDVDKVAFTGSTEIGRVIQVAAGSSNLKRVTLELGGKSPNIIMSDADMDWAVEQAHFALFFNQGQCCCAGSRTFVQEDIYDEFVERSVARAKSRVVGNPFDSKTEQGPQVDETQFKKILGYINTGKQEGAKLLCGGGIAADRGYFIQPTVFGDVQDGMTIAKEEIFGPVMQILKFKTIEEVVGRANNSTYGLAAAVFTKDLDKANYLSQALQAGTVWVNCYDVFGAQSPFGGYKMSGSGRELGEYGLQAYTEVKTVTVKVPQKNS
Description: (§1) The activation effect of each test compound on the acetaldehyde oxidation rate of ALDH2 was measured with the following method. A test was conducted by using a commercially available PicoProbe™ Aldehyde dehydrogenase Activity Assay Kit (manufactured by Abcam) with reference to an instruction attached to the product under the following conditions. To each well of a 384-well plate, the following (1) to (3) were sequentially added with a pipette: • (1) 10 μL of solution obtained by dissolving and diluting a human recombinant ALDH2 enzyme (manufactured by Abcam, product number: ab87415) with ALDH assay Buffer (final concentration: 1 μg/mL); • (2) 10 μL of 30 μM or 90 μM test compound solution (with 3% DMSO) prepared by using ALDH assay Buffer; and • (3) 10 μL of Reaction mix composed with ratio of 7.3 μL of ALDH assay Buffer, 0.6 μL of PicoProbe, 0.6 μL of Substrate Mix, and 1.5 μL of Acetaldehyde.
(§2) Before addition of (3), incubation was performed at room temperature for 5 minutes. After addition of (3), fluorescence intensity was measured at room temperature every 2.5 minutes over a period of 60 minutes by using an EnVision (manufactured by PerkinElmer Inc.) to determine the oxidation rate. Wavelengths of 535 nm and 587 nm were used for fluorescence intensities of excitation and emission, respectively.

[3] = Test Example 3: Metabolic stability with human hepatic microsomes; format: in vitro ADME; settings: human hepatic microsomes 0.1 mg protein/mL, 0.1 μmol/L test compound, after 30 minutes, 37° C.
Description: For the compounds of Examples 1 to 9, which had been confirmed to have stability in the mouse hepatic microsome test, metabolic stability with human hepatic microsomes was measured. The specific method is as follows. • (1) Fifty microliter-portions were taken from 0.2 μmol/L test compound diluted with β-NADPH solution. • (2) Fifty microliters of 0.2 mg protein/mL human hepatic microsome solution was added to each (except for a sample with a reaction time of 0 minutes). • (3) Incubation was performed with shaking at 37° C. for 30 minutes (concentration in reaction sample: 0.1 μmol/L test compound, 0.1 mg protein/mL human hepatic microsome) • (4) After incubation, 400 μL of methanol was added to terminate the reaction. • (5) To the sample with a reaction time of 0 minutes, 50 μL of 0.2 mg protein/mL hepatic microsome solution was added. • (6) Each of the samples from (4) and (5) was left to stand at −20° C. for 30 minutes or longer, and then centrifuged at 4° C. and 3,000 rpm for approximately 10 minutes. • (7) The supernatant was subjected to measurement with LC/MS/MS, and, on the basis of the peak area obtained for the unchanged form, the residual rate (%) of the unchanged form was calculated as that for the case with an incubation time of 0 minutes was assumed as 100%.

[4] = biological target: T1, human recombinant ALDH2 enzyme; test: Test Example 1-1: ALDH2 activation effect (acetaldehyde oxidation rate, PicoProbe kit); format: biochemical; settings: ALDH2 2 μg/mL, 180 min measurement
Description: as §1, with “by BioVision Inc.)” for “by Abcam)”, “concentration: 2” for “concentration: 1”, “of […]” for “of 7.3”, “PicoProbe, 0.3” for “PicoProbe, 0.6”
as §2, with “180” for “60”, “EnSight” for “EnVision”

| Compound | Residual rate (%) of unchanged form [1] [%] | acetaldehyde oxidation rate (no test compound = 100%) ([2]; test compound 10 μM) [%] | acetaldehyde oxidation rate (no test compound = 100%) ([2]; test compound 30 μM) [%] | Residual rate (%) of unchanged form [3] [%] | acetaldehyde oxidation rate (no test compound = 100%) ([4]; test compound 10 μM) [%] | acetaldehyde oxidation rate (no test compound = 100%) ([4]; test compound 30 μM) [%] |
| --- | --- | --- | --- | --- | --- | --- |
| COCc1ccc(CNC(=O)c2c(F)cccc2F)cc1F [Comparative Example 6, reference compound] | 1 |  |  |  |  |  |
| COCc1ccc(CNC(=O)c2c(F)cccc2Cl)cc1F [Comparative Example 5, reference compound] | <1 |  |  |  |  |  |
| COc1ncc(CNC(=O)c2cc(-c3ncccc3[C@@H](C)O)ccc2F)cc1F (single isomer, unassigned) [Example 4, 2-fluoro-N-((5-fluoro-6-methoxypyridin-3-yl)methyl)-5-(3-(1-hydroxyethyl)pyridin-2-yl)benzamide] | 93 | 133 | 155 | >99 |  |  |
| COc1ccc(CNC(=O)c2cc(-c3ncccc3CO)ccc2OCC2CC2)cc1F [Comparative Example 2, reference compound] | 6 |  |  |  |  |  |
| O=C(NCc1cnc(OC2CC2)c(F)c1)c1cc(-c2ncccc2CO)ccc1F [Example 9, N-((6-Cyclopropoxy-5-fluoropyridin-3-yl)methyl)-2-fluoro-5-(3-(hydroxymethyl)pyridin-2-yl)benzamide] | 92 | 182 | 283 | 93 |  |  |
| COCc1ccc(CNC(=O)c2c(Cl)cccc2Br)cc1F [Comparative Example 4, reference compound] | <1 |  |  |  |  |  |
| COCc1ccc(CNC(=O)c2c(Cl)cccc2Cl)cc1F [Comparative Example 3, reference compound] | 1 |  |  |  |  |  |
| COc1ncc(CNC(=O)c2cc(-c3ncccc3[C@@H](C)O)ccc2F)cc1F (single isomer, unassigned) [Example 5, 2-fluoro-N-((5-fluoro-6-methoxypyridin-3-yl)methyl)-5-(3-(1-hydroxyethyl)pyridin-2-yl)benzamide] | 95 | 122 | 170 | 92 |  |  |
| COCc1ccc(CNC(=O)c2cc(-c3ncccc3CO)ccc2F)cn1 [Example 1, 2-Fluoro-5-(3-(hydroxymethyl)pyridin-2-yl)-N-((6-(methoxymethyl)pyridin-3-yl)methyl)benzamide] | 91 |  |  | 96 | 123 | 130 |
| O=C(NCc1ccc2c(c1)OCO2)c1c(Cl)cccc1Cl [Comparative Example 1, reference compound] | <1 | 220 | 275 |  | 199 | 225 |
| COc1ccc(CNC(=O)c2cc(-c3ncccc3CO)ccc2F)cn1 [Example 2, 2-Fluoro-5-(3-(hydroxymethyl)pyridin-2-yl)-N-((6-methoxypyridin-3-yl)methyl)benzamide] | 89 |  |  | >99 | 150 | 180 |
| CCOc1ncc(CNC(=O)c2cc(-c3ncccc3CO)ccc2F)cc1F [Example 7, N-((6-Ethoxy-5-fluoropyridin-3-yl)methyl)-2-fluoro-5-(3-(hydroxymethyl)pyridin-2-yl)benzamide] | 96 | 331 | 415 | 89 |  |  |
| O=C(NCc1ccc(OC(F)F)nc1)c1cc(-c2ncccc2CO)ccc1F [Example 6, N-((6-(Difluoromethoxy)pyridin-3-yl)methyl)-2-fluoro-5-(3-(hydroxymethyl)pyridin-2-yl)benzamide] | >99 | 125 | 139 | 47 |  |  |
| CC(C)Oc1ncc(CNC(=O)c2cc(-c3ncccc3CO)ccc2F)cc1F [Example 8, 2-Fluoro-N-((5-fluoro-6-isopropoxypyridin-3-yl)methyl)-5-(3-(hydroxymethyl)pyridin-2-yl)benzamide] | 90 | 154 | 224 | >99 |  |  |

From patent US20250084036A1, “COMPOUND, ALDEHYDE DEHYDROGENASE 2 ACTIVATOR, PHARMACEUTICAL COMPOSITION, AND THERAPEUTIC AND/OR PROPHYLACTIC DRUG” (Alchemedicine, Inc., priority 2022, published 2025)
